Data taken from patent US9315503B2, “Kinase inhibitors” (CHIESI FARMACEUTICI S.p.A., priority 2011, dated 2016).

Key:
p38alpha = molecular target: T1, p38alpha (Homo sapiens, UniProt Q16539); test: P38Alpha enzyme inhibition assay (Alphascreen kinase activity assay); format: biochemical; conditions: 100 pM p38alpha, 250 μM ATP, 2 hours pre-incubation at 25° C., read-out: p38α inhibition (IC50 values)
T1 construct: purchased Invitrogen PV3304
Procedure, shortened: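 p38α (100 pM) with ATF-2 fusion protein substrate (0.3 µg/ml) in pH 7.5 HEPES/MgCl2 buffer, 1% DMSO, preincubated 2 h at 25°C with compound. Reaction started with 250 µM ATP, ran 1 h at 25°C, then stopped with EDTA. Phospho-ATF2 antibody detected by AlphaScreen luminescence; IC50 from concentration-response curves.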

[1] = system: LPS-stimulated TNFα release from PBMCs; test: LPS-stimulated PBMC TNFα release assay; format: cell-based; conditions: inhibition of TNFα release, human PBMCs, LPS 10 ng/ml, 18 h, ELISA, read-out: p38α inhibition (IC50 values)
Experimental: LPS-Stimulated PBMC TNFα Release Assay.
Peripheral Blood Mononuclear Cells (PBMCs) were isolated from healthy human volunteer blood using a standard density gradient centrifugation technique. Citrated blood was placed onto Histopaque™ and centrifuged. The PBMCs were removed from the density gradient interface and washed in phosphate buffered saline (PBS). The PBMCs were suspended in RPMI 1640 medium (without serum), dispensed into a 96-well plate and incubated at 37° C. for 3 h in a humidified incubator. After incubation, the medium was replaced (with medium containing 1% foetal bovine serum) and the plate incubated at 37° C., for 1 h, in the presence of test compound or the appropriate vehicle. LPS (10 ng/ml), or an appropriate vehicle control, was then added to the cells and the plate returned to the incubator for 18 h. Cell-free supernatants were removed and assayed for TNFα levels using an ELISA kit from R&D Systems.
A dose response curve to each test compound was performed and the effect of compound in each experiment was expressed as a percentage inhibition of the control TNFα release. Dose response curves were plotted and compound potency (IC50) was determined. Compounds were tested in at least three separate experiments.

T1 sequence (Q16539 whole entry): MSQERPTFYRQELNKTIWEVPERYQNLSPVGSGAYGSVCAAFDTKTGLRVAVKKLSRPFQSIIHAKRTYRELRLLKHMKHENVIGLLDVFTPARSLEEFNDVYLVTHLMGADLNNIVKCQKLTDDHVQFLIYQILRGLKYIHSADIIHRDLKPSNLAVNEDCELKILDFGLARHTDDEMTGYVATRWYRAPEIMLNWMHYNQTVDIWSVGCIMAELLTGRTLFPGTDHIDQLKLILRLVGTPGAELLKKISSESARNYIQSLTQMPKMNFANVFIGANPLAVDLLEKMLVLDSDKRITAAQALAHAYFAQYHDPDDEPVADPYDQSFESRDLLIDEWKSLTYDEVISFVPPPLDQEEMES

Q: Which IC50 (p38alpha) does the source give for `Cc1ccc(-n2nc(C(C)(C)C)cc2NC(=O)N[C@H]2CC[C@@H](Oc3ccc4nnc(NC(C)C)n4c3)c3ccccc32)cc1` [Example 8, 1-(5-tert-Butyl-2-p-tolyl-2H-pyrazol-3-yl)-3-[(1S,4R)-4-(3-isopropylamino-[1,2,4]triazolo[4,3-a]pyridin-6-yloxy)-1,2,3,4-tetrahydro-naphthalen-1-yl]-urea] here?
A: Its IC50 is under 10 nM.

Q: And the IC50 [1]?
A: Its IC50 is under 10 nM.

Q: Which results are given for `Cc1ccc(-n2nc(C(C)(C)C)cc2NC(=O)N[C@H]2CC[C@@H](Oc3ccc(C#N)nc3)c3ccccc32)cc1` [Example 9, 1-(5-tert-Butyl-2-p-tolyl-2H-pyrazol-3-yl)-3-[(1S,4R)-4-(6-cyano-pyridin-3-yloxy)-1,2,3,4-tetrahydro-naphthalen-1-yl]-urea]?
A: IC50 (p38alpha): < 10 nM; IC50 [1]: 100 to 1000 nM

Q: For `COCC(=O)Nc1cc(O[C@H]2CC[C@H](NC(=O)Nc3cc(C(C)(C)C)nn3-c3ccc(C)cc3)c3ccccc32)ccn1` [Example 10, N-(4-{(1S,4S)-4-[3-(5-tert-Butyl-2-p-tolyl-2H-pyrazol-3-yl)-ureido]-1,2,3,4-tetrahydro-naphthalen-1-yloxy}-pyridin-2-yl)-2-methoxy-acetamide], which IC50 (p38alpha) is on record?
A: Its IC50 is under 10 nM.

Q: What about the IC50 [1] of the same molecule?
A: The IC50 was under 10 nM.

Q: With `Cc1ccc(-n2nc(C(C)(C)C)cc2NC(=O)N[C@H]2CC[C@@H](Oc3ccc4cnn(CCO)c4c3)c3ccccc32)cc1` [Example 11, 1-(5-tert-Butyl-2-p-tolyl-2H-pyrazol-3-yl)-3-{(1S,4R)-4-[1-(2-hydroxy-ethyl)-1H-indazol-6-yloxy]-1,2,3,4-tetrahydro-naphthalen-1-yl}-urea] as the molecule, how does the IC50 (p38alpha) read?
A: The IC50 was under 10 nM.

Q: What about the IC50 [1] of the same molecule?
A: The IC50 was 10 to 100 nM.

Q: Which results are given for `Cc1ccc(-n2nc(C(C)(C)C)cc2NC(=O)N[C@H]2CC[C@@H](Oc3ccc4nnc([C@H]5CCCN5)n4c3)c3ccccc32)cc1` [Example 12, 1-(5-tert-Butyl-2-p-tolyl-2H-pyrazol-3-yl)-3-[(1S,4R)-4-((R)-3-pyrrolidin-2-yl-[1,2,4]triazolo[4,3-a]pyridin-6-yloxy)-1,2,3,4-tetrahydro-naphthalen-1-yl]-urea]?
A: IC50 (p38alpha): < 10 nM; IC50 [1]: < 10 nM

Q: How did the IC50 (p38alpha) turn out when `COCC(=O)Nc1cc(O[C@@H]2CC[C@H](NC(=O)Nc3cc(C(C)(C)C)nn3-c3ccc(C)cc3)c3ccccc32)ccn1` [Example 13, N-(4-{(1R,4S)-4-[3-(5-tert-Butyl-2-p-tolyl-2H-pyrazol-3-yl)-ureido]-1,2,3,4-tetrahydro-naphthalen-1-yloxy}-pyridin-2-yl)-2-methoxy-acetamide] was run?
A: Its IC50 is under 10 nM.

Q: What about the IC50 [1] of the same molecule?
A: The IC50 was under 10 nM.

Q: For `Cc1ccc(-n2nc(C(C)(C)C)cc2NC(=O)N[C@H]2CC[C@@H](Oc3ccc4nnc(-c5ccc(CN6CCOCC6)cc5)n4c3)c3ccccc32)cc1` [Example 18, 1-(5-tert-Butyl-2-p-tolyl-2H-pyrazol-3-yl)-3-{(1S,4R)-4-[3-(4-morpholin-4-ylmethyl-phenyl)-[1,2,4]triazolo[4,3-a]pyridin-6-yloxy]-1,2,3,4-tetrahydro-naphthalen-1-yl]-urea], which IC50 (p38alpha) is on record?
A: The IC50 was under 10 nM.

Q: What about the IC50 [1] of the same molecule?
A: Its IC50 is under 10 nM.

Q: `Cc1ccc(-n2nc(C(C)(C)C)cc2NC(=O)N[C@H]2CC[C@@H](Oc3ccc4nnc(-c5cccc(CN6CCOCC6)c5)n4c3)c3ccccc32)cc1` [Example 19, 1-(5-tert-Butyl-2-p-tolyl-2H-pyrazol-3-yl)-3-{(1S,4R)-4-[3-(3-morpholin-4-ylmethyl-phenyl)-[1,2,4]triazolo[4,3-a]pyridin-6-yloxy]-1,2,3,4-tetrahydro-naphthalen-1-yl}-urea] was tested. Which IC50 (p38alpha) did it give?
A: The IC50 was under 10 nM.

Q: What about the IC50 [1] of the same molecule?
A: The IC50 was under 10 nM.

Q: With `Cc1ccc(-n2nc(C(C)(C)C)cc2NC(=O)N[C@H]2CC[C@@H](Oc3ccc4nnc(-c5ccccc5CN5CCOCC5)n4c3)c3ccccc32)cc1` [Example 20, 1-(5-tert-Butyl-2-p-tolyl-2H-pyrazol-3-yl)-3-{(1S,4R)-4-[3-(2-morpholin-4-ylmethyl-phenyl)-[1,2,4]triazolo[4,3-a]pyridin-6-yloxy]-1,2,3,4-tetrahydro-naphthalen-1-yl}-urea] as the molecule, how does the IC50 (p38alpha) read?
A: The IC50 was under 10 nM.

Q: What about the IC50 [1] of the same molecule?
A: Its IC50 is under 10 nM.

Q: Which results are given for `Cc1ccc(-n2nc(C(C)(C)C)cc2NC(=O)N[C@H]2CC[C@@H](Oc3ccc(CN4CCOCC4)nc3)c3ccccc32)cc1` [Example 21, 1-(5-tert-Butyl-2-p-tolyl-2H-pyrazol-3-yl)-3-[(1S,4R)-4-(6-morpholin-4-ylmethyl-pyridin-3-yloxy)-1,2,3,4-tetrahydro-naphthalen-1-yl]-urea]?
A: IC50 (p38alpha): 10 to 100 nM; IC50 [1]: 10 to 100 nM

Q: Which results are given for `Cc1ccc(-n2nc(C(C)(C)C)cc2NC(=O)N[C@H]2CC[C@@H](Oc3ccc4nnc(CC5CCN(C)CC5)n4c3)c3ccccc32)cc1` [Example 22, 1-(5-tert-Butyl-2-p-tolyl-2H-pyrazol-3-yl)-3-{(1S,4R)-4-[3-(1-methyl-piperidin-4-ylmethyl)-[1,2,4]triazolo[4,3-a]pyridin-6-yloxy]-1,2,3,4-tetrahydro-naphthalen-1-yl}-urea]?
A: IC50 (p38alpha): < 10 nM; IC50 [1]: 100 to 1000 nM

Q: What does the source list for `Cc1ccc(-n2nc(C(C)(C)C)cc2NC(=O)N[C@H]2CC[C@@H](Oc3ccc4nnc(CC5CCN(CC(F)F)CC5)n4c3)c3ccccc32)cc1` [Example 23, 1-(5-tert-Butyl-2-p-tolyl-2H-pyrazol-3-yl)-3-((1S,4R)-4-{3-[1-(2,2-difluoro-ethyl)-piperidin-4-ylmethyl]-[1,2,4]triazolo[4,3-a]pyridin-6-yloxy}-1,2,3,4-tetrahydro-naphthalen-1-yl)-urea]?
A: IC50 (p38alpha): < 10 nM; IC50 [1]: < 10 nM

Q: Which results are given for `Cc1ccc(-n2nc(C(C)(C)C)cc2NC(=O)N[C@H]2CC[C@@H](Oc3ccc4nnc(N5CCC(O)CC5)n4c3)c3ccccc32)cc1` [Example 24, 1-(5-tert-Butyl-2-p-tolyl-2H-pyrazol-3-yl)-3-[(1S,4R)-4-[3-(4-hydroxypiperidin-1-yl)-[1,2,4]triazolo[4,3-a]pyridine-6-yloxy]-1,2,3,4-tetrahydro-naphthalen-1-yl]-urea]?
A: IC50 (p38alpha): < 10 nM; IC50 [1]: < 10 nM

Q: Which results are given for `Cc1ccc(-n2nc(C(C)(C)C)cc2NC(=O)N[C@H]2CC[C@@H](Oc3ccc4nnc(N(C)CCO)n4c3)c3ccccc32)cc1` [Example 25, 1-(5-tert-Butyl-2-p-tolyl-2H-pyrazol-3-yl)-3-[(1S,4R)-4-{3-[(2-hydroxy-ethyl)-methyl-amino]-[1,2,4]triazolo[4,3-a]pyridine-6-yloxy]-1,2,3,4-tetrahydro-naphthalen-1-yl]-urea]?
A: IC50 (p38alpha): < 10 nM; IC50 [1]: < 10 nM

Q: What does the source list for `Cc1ccc(-n2nc(C(C)(C)C)cc2NC(=O)N[C@H]2CC[C@@H](Oc3ccc4nnc(N5CC[C@H](O)C5)n4c3)c3ccccc32)cc1` [Example 26, 1-(5-tert-Butyl-2-p-tolyl-2H-pyrazol-3-yl)-3-{(1S,4R)-4-[3-((S)-3-hydroxy-pyrrolidin-1-yl)-[1,2,4]triazolo[4,3-a]pyridin-6-yloxy]-1,2,3,4-tetrahydro-naphthalen-1-yl}-urea]?
A: IC50 (p38alpha): < 10 nM; IC50 [1]: < 10 nM

Q: `Cc1ccc(-n2nc(C(C)(C)C)cc2NC(=O)N[C@H]2CC[C@@H](Oc3ccc4nnc(N5CCC[C@@H]5CO)n4c3)c3ccccc32)cc1` [Example 27, 1-(5-tert-Butyl-2-p-tolyl-2H-pyrazol-3-yl)-3-{(1S,4R)-4-[3-((R)-2-hydroxymethyl-pyrrolidin-1-yl)-[1,2,4]triazolo[4,3-a]pyridin-6-yloxy]-1,2,3,4-tetrahydro-naphthalen-1-yl}-urea] was tested. Which IC50 (p38alpha) did it give?
A: The IC50 was under 10 nM.

Q: And the IC50 [1]?
A: The IC50 was under 10 nM.
